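48-hour exposure; five concentrations; linearly interpolated endpoints. TGI is the concentration that stops growth completely.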
Tests used:
Assay in all cases: growth of human tumour cells (NCI), 48 h
[1] = tested on: UO-31 renal
[2] = tested on: SNB-19 CNS
[3] = tested on: NCI-H460 lung
[4] = tested on: HCC-2998 colon
[5] = tested on: MCF7 breast
[6] = tested on: SNB-75 CNS
[7] = tested on: MALME-3M melanoma
[8] = tested on: SF-295 CNS
[9] = tested on: EKVX NSCLC
[10] = tested on: SN12C renal
[11] = tested on: SK-MEL-5 melanoma
[12] = tested on: MOLT-4 leukemia
[13] = tested on: NCI-H23 lung
[14] = tested on: SR leukemia
[15] = tested on: LOX IMVI melanoma
[16] = tested on: HCT-116 colon
[17] = tested on: U251 CNS
[18] = tested on: UACC-62 melanoma
[19] = tested on: M14 melanoma
[20] = tested on: CCRF-CEM leukemia
[21] = tested on: HL-60(TB) leukemia
[22] = tested on: OVCAR-5 ovarian
[23] = tested on: KM12 colon
[24] = tested on: NCI/ADR-RES ovarian
[25] = tested on: HOP-92 NSCLC
[26] = tested on: BT-549 breast
[27] = tested on: MDA-MB-435
[28] = tested on: UACC-257 melanoma
[29] = tested on: A549 NSCLC
[30] = tested on: COLO 205 colon
[31] = tested on: T-47D breast
[32] = tested on: SF-539 CNS
[33] = tested on: MDA-MB-231 breast
[34] = tested on: HCT-15 colon
[35] = tested on: NCI-H522 lung
[36] = tested on: SK-MEL-2 melanoma
[37] = tested on: TK-10 renal
[38] = tested on: RXF 393 renal
[39] = tested on: OVCAR-4 ovarian
[40] = tested on: DU-145 prostate
[41] = tested on: K-562 leukemia
[42] = tested on: IGROV1 ovarian
[43] = tested on: HOP-62 NSCLC
[44] = tested on: SW-620 colon
[45] = tested on: HS 578T breast
[46] = tested on: SK-OV-3 ovarian
[47] = tested on: 786-0 renal
[48] = tested on: HT29 colon
[49] = tested on: SK-MEL-28 melanoma
[50] = tested on: CAKI-1 renal
[51] = tested on: PC-3 prostate
[52] = tested on: OVCAR-8 ovarian
[53] = tested on: RPMI-8226 leukemia
[54] = tested on: OVCAR-3 ovarian
[55] = tested on: SF-268 CNS
[56] = tested on: MDA-N
[57] = tested on: A498 renal
[58] = tested on: ACHN renal

For `O=C(O)CCO/N=C1/C(c2c(O)[nH]c3ccccc23)=Nc2ccccc21`, the TGI [1] was 38.3 µM, the TGI [2] was over 100 µM and the TGI [3] was over 100 µM. It also gave a TGI [4] of 35.7 µM, a TGI [5] of over 100 µM and a TGI [6] of 53.5 µM. It also gave a TGI [7] of over 100 µM, a TGI [8] of over 100 µM and a TGI [9] of 47.9 µM. For the same compound, the TGI [10] was over 100 µM, the TGI [11] was 27.3 µM and the TGI [12] was 77.2 µM. For the same compound, the TGI [13] was 66.5 µM, the TGI [14] was 57.9 µM and the TGI [15] was 44.8 µM. The TGI [16] was 34.8 µM, the TGI [17] was over 100 µM and the TGI [18] was 46.9 µM. It also gave a TGI [19] of over 100 µM, a TGI [20] of 40.3 µM and a TGI [21] of 62.4 µM. It also gave a TGI [22] of over 100 µM, a TGI [23] of 38.9 µM and a TGI [24] of over 100 µM. The TGI [25] was 96.9 µM, the TGI [26] was over 100 µM and the TGI [27] was over 100 µM. It also gave a TGI [28] of over 100 µM, a TGI [29] of over 100 µM and a TGI [30] of 35.1 µM. For the same compound, the TGI [31] was 72.6 µM, the TGI [32] was over 100 µM and the TGI [33] was over 100 µM. For the same compound, the TGI [34] was 42.3 µM, the TGI [35] was over 100 µM and the TGI [36] was 37.7 µM. The TGI [37] was over 100 µM, the TGI [38] was 17.5 µM and the TGI [39] was over 100 µM. For the same compound, the TGI [40] was 75.1 µM, the TGI [41] was over 100 µM and the TGI [42] was over 100 µM. The TGI [43] was over 100 µM, the TGI [44] was over 100 µM and the TGI [45] was over 100 µM. It also gave a TGI [46] of 21.1 µM, a TGI [47] of 94.8 µM and a TGI [48] of 79.4 µM. For the same compound, the TGI [49] was over 100 µM, the TGI [50] was 63.8 µM and the TGI [51] was over 100 µM. The TGI [52] was over 100 µM, the TGI [53] was over 100 µM and the TGI [54] was 43.9 µM. It also gave a TGI [55] of over 100 µM, a TGI [56] of over 100 µM and a TGI [57] of 74.2 µM. It also gave a TGI [58] of over 100 µM.

Reference: PubChem BioAssay (NCI)
